From PubChem BioAssay (NCI)
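Following 48 hours of exposure in 96-well plates, responses at five concentrations were used to interpolate endpoints linearly. TGI denotes the concentration required for complete inhibition of growth.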

Key:
Assay in all cases: NCI tumour cell line growth inhibition, 48 h
[1] = tested on: CCRF-CEM leukemia
[2] = tested on: COLO 205 colon
[3] = tested on: M14 melanoma
[4] = tested on: NCI-H460 lung
[5] = tested on: NCI-H522 lung
[6] = tested on: RPMI-8226 leukemia
[7] = tested on: SK-MEL-5 melanoma
[8] = tested on: SNB-75 CNS
[9] = tested on: SW-620 colon
[10] = tested on: TK-10 renal
[11] = tested on: EKVX NSCLC
[12] = tested on: NCI/ADR-RES ovarian
[13] = tested on: SK-OV-3 ovarian
[14] = tested on: A498 renal

With `CC[N+](CC)(CC)Cc1cn(S(=O)(=O)c2ccccc2)c2ccccc12` the TGI [1] was over 100 µM, the TGI [2] was over 100 µM and the TGI [3] was over 100 µM. For the same molecule, the TGI [4] was over 100 µM, the TGI [5] was over 100 µM and the TGI [6] was over 100 µM. It also gave a TGI [7] of over 100 µM, a TGI [8] of over 100 µM and a TGI [9] of over 100 µM. The TGI [10] was over 100 µM.
`Clc1cccc(Cl)c1C1SCc2nc3cc4ccccc4cc3n21` (stereo not drawn) gave a TGI [1] of over 100 µM, a TGI [2] of over 100 µM and a TGI [11] of over 100 µM. For the same molecule, the TGI [3] was over 100 µM, the TGI [4] was over 100 µM and the TGI [12] was over 100 µM. For the same molecule, the TGI [6] was over 100 µM, the TGI [7] was over 100 µM and the TGI [13] was over 100 µM. The TGI [8] was over 100 µM, the TGI [9] was over 100 µM and the TGI [10] was over 100 µM.
`O=c1c2cc([N+](=O)[O-])cnc2sn1-c1ccc(Oc2ccccc2)cc1` gave a TGI [1] of over 100 µM, a TGI [2] of over 100 µM and a TGI [11] of over 100 µM. The TGI [3] was over 100 µM, the TGI [4] was over 100 µM and the TGI [5] was 34.1 µM. The TGI [12] was over 100 µM, the TGI [6] was over 100 µM and the TGI [7] was over 100 µM. For the same molecule, the TGI [13] was 87.5 µM, the TGI [8] was over 100 µM and the TGI [9] was over 100 µM. The TGI [10] was over 100 µM.
Molecule `CC/C(=C/OC)P1(=O)OC(C)(C)CN1C(C)(C)C` (stereo not drawn) has a TGI [14] of over 100 µM, a TGI [2] of over 100 µM and a TGI [11] of over 100 µM. For the same molecule, the TGI [3] was over 100 µM, the TGI [4] was over 100 µM and the TGI [12] was over 100 µM. The TGI [6] was over 100 µM, the TGI [7] was over 100 µM and the TGI [13] was over 100 µM. It also gave a TGI [9] of over 100 µM and a TGI [10] of over 100 µM.
`CC(C)CC(NC(=O)OCc1ccccc1)C(=O)NCCCCC(N)C(=O)NC(CCCCNC(=O)C(CC(C)C)NC(=O)OCc1ccccc1)C(=O)NC(CCCCNC(=O)C(CC(C)C)NC(=O)OCc1ccccc1)C(=O)NC(CCCCNC(=O)C(CC(C)C)NC(=O)OCc1ccccc1)C(=O)NC(CCCCNC(=O)C(CC(C)C)NC(=O)OCc1ccccc1)C(=O)NC(CCCCNC(=O)C(CC(C)C)NC(=O)OCc1ccccc1)C(=O)O` (stereo not drawn) gave a TGI [14] of over 100 µM, a TGI [1] of over 100 µM and a TGI [4] of over 100 µM. The TGI [5] was over 100 µM, the TGI [6] was over 100 µM and the TGI [7] was over 100 µM. For the same molecule, the TGI [9] was over 100 µM and the TGI [10] was over 100 µM.
`CC(C(O)c1ccccc1)N(C)/N=N/c1nc2c([nH]1)c(=O)n(C)c(=O)n2C` (stereo not drawn) gave a TGI [1] of over 100 µM, a TGI [2] of over 100 µM and a TGI [11] of over 100 µM. It also gave a TGI [3] of over 100 µM, a TGI [4] of over 100 µM and a TGI [12] of over 100 µM. The TGI [6] was over 100 µM, the TGI [7] was over 100 µM and the TGI [13] was over 100 µM. For the same molecule, the TGI [8] was over 100 µM, the TGI [9] was over 100 µM and the TGI [10] was over 100 µM.
Work on `CCOC(=O)c1c(-c2ccc(Cl)cc2)c(C#N)c(=S)n(C2OC(CO)C(O)C(O)C2O)c1-c1ccccc1` (stereo not drawn) yielded a TGI [1] of 53.9 µM, a TGI [2] of 80.9 µM and a TGI [3] of 37.6 µM. For the same molecule, the TGI [4] was 87.5 µM, the TGI [12] was over 100 µM and the TGI [6] was over 100 µM. It also gave a TGI [7] of 29.3 µM, a TGI [13] of 96.2 µM and a TGI [8] of 87.3 µM. For the same molecule, the TGI [9] was 46.7 µM and the TGI [10] was 84 µM.
`CC1C(c2ccccc2)=CCON1c1ccccc1` (stereo not drawn) gave a TGI [1] of over 100 µM, a TGI [2] of over 100 µM and a TGI [11] of over 100 µM. It also gave a TGI [3] of over 100 µM, a TGI [4] of over 100 µM and a TGI [5] of over 100 µM. It also gave a TGI [6] of over 100 µM, a TGI [7] of over 100 µM and a TGI [13] of over 100 µM. For the same molecule, the TGI [8] was over 100 µM and the TGI [9] was over 100 µM.
With `Cc1c(C(=O)Nc2ccc(Cl)c(C(F)(F)F)c2)oc2cc(O)ccc2/c1=N\NC(N)=S` the TGI [14] was over 100 µM, the TGI [1] was over 100 µM and the TGI [2] was over 100 µM. For the same molecule, the TGI [11] was over 100 µM, the TGI [3] was over 100 µM and the TGI [4] was over 100 µM. The TGI [5] was over 100 µM, the TGI [6] was over 100 µM and the TGI [7] was over 100 µM. The TGI [13] was over 100 µM, the TGI [8] was over 100 µM and the TGI [9] was over 100 µM. It also gave a TGI [10] of over 100 µM.
With `O=C1OC(c2ccccc2)(c2ccccc2)CC1CN1CCOCC1` (stereo not drawn) the TGI [14] was over 100 µM, the TGI [1] was 9.44 µM and the TGI [2] was 18.4 µM. The TGI [11] was over 100 µM, the TGI [3] was 31.4 µM and the TGI [4] was over 100 µM. It also gave a TGI [5] of 22.8 µM, a TGI [7] of over 100 µM and a TGI [13] of 60.6 µM. The TGI [8] was 49.1 µM, the TGI [9] was 18 µM and the TGI [10] was 31.6 µM.
`O=S(=O)([N-]c1nc2ccccc2nc1-[n+]1ccccc1)c1ccccc1` showed a TGI [1] of 30.7 µM, a TGI [2] of over 100 µM and a TGI [11] of over 100 µM. It also gave a TGI [3] of over 100 µM, a TGI [4] of over 100 µM and a TGI [5] of over 100 µM. The TGI [12] was over 100 µM, the TGI [6] was over 100 µM and the TGI [7] was over 100 µM. The TGI [13] was over 100 µM, the TGI [8] was over 100 µM and the TGI [10] was over 100 µM.
With `CN=C1Nc2ccccc2C(=S)N2CSC[C@@H]12` the TGI [14] was over 100 µM, the TGI [2] was over 100 µM and the TGI [3] was over 100 µM. It also gave a TGI [4] of over 100 µM, a TGI [5] of over 100 µM and a TGI [12] of over 100 µM. For the same molecule, the TGI [6] was over 100 µM, the TGI [7] was over 100 µM and the TGI [13] was over 100 µM. The TGI [9] was over 100 µM and the TGI [10] was over 100 µM.
`C=C(CO)[C@H]1CC/C(C)=C/CC/C(C)=C/C/C=C(\C)[C@H](O)C1` was tested, and the TGI [1] was over 100 µM, the TGI [2] was 59.9 µM and the TGI [11] was over 100 µM. It also gave a TGI [4] of 62.7 µM, a TGI [5] of 32.1 µM and a TGI [12] of 90.3 µM. It also gave a TGI [6] of 51.6 µM, a TGI [7] of 54.1 µM and a TGI [13] of over 100 µM. It also gave a TGI [8] of 78.9 µM, a TGI [9] of 40.1 µM and a TGI [10] of 47.7 µM.
`Cc1nc2c(n1CCCl)C(=O)c1ccccc1C2=O` was tested, and the TGI [1] was over 100 µM, the TGI [2] was 30.2 µM and the TGI [11] was over 100 µM. The TGI [3] was 17.1 µM, the TGI [4] was 65.9 µM and the TGI [5] was 49.6 µM. The TGI [12] was 63.6 µM, the TGI [6] was over 100 µM and the TGI [13] was 79.6 µM. The TGI [8] was over 100 µM, the TGI [9] was 88.9 µM and the TGI [10] was 78.5 µM.
Work on `BrC12C3C4C5C(C(C43)C13OCCO3)C52` (stereo not drawn) yielded a TGI [14] of over 100 µM, a TGI [1] of over 100 µM and a TGI [2] of over 100 µM. For the same molecule, the TGI [11] was over 100 µM, the TGI [4] was over 100 µM and the TGI [5] was over 100 µM. The TGI [6] was over 100 µM, the TGI [7] was over 100 µM and the TGI [13] was over 100 µM. For the same molecule, the TGI [8] was over 100 µM, the TGI [9] was over 100 µM and the TGI [10] was over 100 µM.
Work on `Cn1c(=S)[nH]c2c(Cl)cc(Cl)cc2c1=O` yielded a TGI [1] of 64.7 µM, a TGI [2] of over 100 µM and a TGI [11] of over 100 µM. For the same molecule, the TGI [3] was over 100 µM, the TGI [4] was over 100 µM and the TGI [5] was over 100 µM. It also gave a TGI [12] of over 100 µM, a TGI [7] of over 100 µM and a TGI [13] of over 100 µM. The TGI [8] was over 100 µM, the TGI [9] was over 100 µM and the TGI [10] was over 100 µM.
`Cc1ccc(-c2cnc(NC3OC(COC(=O)c4ccccc4)C(OC(=O)c4ccccc4)C(OC(=O)c4ccccc4)C3OC(=O)c3ccccc3)s2)cc1` (stereo not drawn) gave a TGI [2] of over 100 µM, a TGI [11] of over 100 µM and a TGI [3] of over 100 µM. It also gave a TGI [4] of over 100 µM, a TGI [5] of over 100 µM and a TGI [12] of over 100 µM. For the same molecule, the TGI [6] was over 100 µM, the TGI [7] was over 100 µM and the TGI [13] was over 100 µM. The TGI [8] was over 100 µM, the TGI [9] was over 100 µM and the TGI [10] was over 100 µM.
Molecule `CCOC(=O)C1=C(C)C2C3C(=O)NC(=O)C3C1(C)C1C(=O)NC(=O)C21` (stereo not drawn) has a TGI [14] of over 100 µM, a TGI [1] of over 100 µM and a TGI [2] of over 100 µM. The TGI [11] was over 100 µM, the TGI [3] was over 100 µM and the TGI [4] was over 100 µM. For the same molecule, the TGI [6] was over 100 µM, the TGI [7] was over 100 µM and the TGI [13] was over 100 µM. It also gave a TGI [8] of over 100 µM, a TGI [9] of over 100 µM and a TGI [10] of over 100 µM.
